# Measurements: US20240269106A1, “SMALL MOLECULE MODULATOR TARGETING A RARE HISTONE MODIFICATION REGULATING ADIPOGENESIS AND PHARMACEUTICAL FORMULATION THEREOF” (COUNCIL OF SCIENTIFIC AND INDUSTRIAL RESEARCH AN INDIAN …, priority 2021, published 2024)
# What was measured:
# full length p300 [1] = molecular target: T1, full length p300 (Homo sapiens, UniProt Q09472); assay: In vitro p300 acetylation assay (immunoblot); assay type: biochemical; settings: same range of concentration (10, 15, 20 and 25 μM)
# T1 construct: Purified full length p300 protein was used for in vitro acetylation/butyrylation assay
# Method: (§1) Purified full length p300 protein was used for in vitro acetylation/butyrylation assay in presence/absence of different compounds. Acylation reactions were performed in reaction buffer (25 mM Tris-HCl PH 7.5, 100 mM NaCl, 0.1 mM EDTA, 1 mM DTT, 10% Glycerol, 1×PIC) with 100 ng/ml TSA, and 50 μM Butyryl-CoA/Acetyl COA. Xenopus histone H3 (500 ng) was used as the substrate and p300 (10,000 cpm activity) was used as the enzyme. Reactions were incubated in presence or absence of small molecule modulators (including compound of Formula I) for 10 minutes at 30° C., followed by initiation of the acetylation/butyrylation reaction by the addition of acetyl/butyryl CoA. After a further 10 minutes, reactions were stopped by addition of Laemmli buffer and samples were used for immunoblotting.
# (§2) Immunoblotting with antibodies against acetylated H3K18, acetylated H3K9 and pan-butyryl lysine was performed to check for the relative inhibition of acetyl transferase and butyryl transferase activities of full length p300 by garcinol, isogarcinol and its different derivatives including compound of Formula I at different concentrations. FIG. 2i depicts the effect of garcinol, isogarcinol and two of its derivatives LTK-13 and LTK-14 on p300 catalysed acetyltransferase activity. […] FIG. 2ii depicts the effect of LTK-14 on acetylation and butyrylation catalysed by p300. Lane 1, enzyme alone; Lane 2-4, enzyme+LTK-14 at concentrations 500 nM, 2 μM and 10 μM, respectively. LTK-14 could inhibit acetylation at 10 μM concentration while butyrylation was inhibited at 2 μM concentration. FIG. 2iii depicts the effect of compound x on acetylation and butyrylation catalysed by p300. Lane 1, enzyme alone; Lane 2, enzyme+DMSO; Lane 3-6, enzyme+compound x at concentrations 10, 15, 20 and 25 μM, respectively.
# full length p300 [2] = molecular target: T1, full length p300; assay: In vitro p300 butyrylation assay (immunoblot); assay type: biochemical; settings: 25 μM
# Method: as §1, §2
# [3] = tested on: histone acetylation and butyrylation in 3T3L1 cells; assay: Immunoblotting of histone modification status in 3T3L1; assay type: cell-based; settings: 3T3L1 induced to undergo adipogenesis
# Method: Histones were acid extracted from both undifferentiated and differentiated 3T3L1 for comparison of acetylation and butyrylation levels. For the acid extraction, 3T3L1 cells were washed with ice-cold PBS (supplemented with 5 mm NaBu) and then resuspended in Triton extraction buffer (PBS containing 0.5% Triton X-100 (v/v) and 2 mM PMSF). The cells were allowed to lyse on ice for 10 minutes, spun down, washed with PBS and the process was repeated another time. Then the proteins were acid extracted with 0.2 N HCl for two hours on ice. The debris was spun down and then histones were precipitated by incubating the supernatant with 33% Trichloroacetic acid at 4° C. for 30 minutes. The histones were then pelleted down and then given two washes with acetone. The pellet was allowed to air-dry for 10 minutes and then resuspended with 50 mm Tris-Cl, pH 7.4.
# The histones were then run in 15% SDS-PAGE, transferred onto PVDF membrane, blocked with 5% skimmed milk solution to prevent non-specific antibody binding, and finally probed with antibodies against acetylation and butyrylation marks.
# Acid extraction of histones was performed from 3T3L1 cells that had been induced to undergo adipogenesis in the absence of any inhibitor (No Inhibitor), in presence of DMSO (solvent control) and in presence of compound of Formula I. The extraction protocol was the same as that described in Example 7.
# Histone acetylation levels in 3T3L1 cells that were treated with compound of Formula I were compared with that in DMSO treated and untreated conditions by immunoblotting with antibodies against acetylated histones H3K18, H3K9 and H4K12 (FIG. 7). Histones H3 and H4 were used as loading controls (panel i). Under similar conditions histone butyrylation levels were compared by immunoblotting using antibodies against butyrylated histone H3K23, H4K5 and pan-butyryl lysine (panel ii).
# [4] = Detection of compound in mice liver by Q-TOF LC/MS; assay type: in vivo; settings: LC-ESI-MS of liver metabolites
# Method: The liver samples of mice treated with compound I were homogenized in a solution consisting of 50% methanol and 50% water and then snap frozen in liquid nitrogen followed by lyophilization. Profiling of intracellular metabolites was performed on an agilent 1290 Infinity LC system coupled to Agilent 6545 Accurate Mass Quadrupole Time of Flight (QTOF) with Agilent Jet Stream Thermal Gradient Technology. The UPLC system was assembled with a Diode array detector (DAD) and autosampler. The Chromatographic separation was achieved on Agilent ZORBAX SB-C18 column (2.1×100 mm, 1.8 μm) as stationary phase. […]
# The ESI spectra of pure solution of compound of Formula I was taken as reference (FIG. 14A). When LC-ESI-MS analysis of metabolites of compound treated mice, liver was performed, the corresponding protonated molecular ion species was detected in the ESI spectra (FIG. 14B).
# T1 sequence (Q09472 whole entry, species assumed): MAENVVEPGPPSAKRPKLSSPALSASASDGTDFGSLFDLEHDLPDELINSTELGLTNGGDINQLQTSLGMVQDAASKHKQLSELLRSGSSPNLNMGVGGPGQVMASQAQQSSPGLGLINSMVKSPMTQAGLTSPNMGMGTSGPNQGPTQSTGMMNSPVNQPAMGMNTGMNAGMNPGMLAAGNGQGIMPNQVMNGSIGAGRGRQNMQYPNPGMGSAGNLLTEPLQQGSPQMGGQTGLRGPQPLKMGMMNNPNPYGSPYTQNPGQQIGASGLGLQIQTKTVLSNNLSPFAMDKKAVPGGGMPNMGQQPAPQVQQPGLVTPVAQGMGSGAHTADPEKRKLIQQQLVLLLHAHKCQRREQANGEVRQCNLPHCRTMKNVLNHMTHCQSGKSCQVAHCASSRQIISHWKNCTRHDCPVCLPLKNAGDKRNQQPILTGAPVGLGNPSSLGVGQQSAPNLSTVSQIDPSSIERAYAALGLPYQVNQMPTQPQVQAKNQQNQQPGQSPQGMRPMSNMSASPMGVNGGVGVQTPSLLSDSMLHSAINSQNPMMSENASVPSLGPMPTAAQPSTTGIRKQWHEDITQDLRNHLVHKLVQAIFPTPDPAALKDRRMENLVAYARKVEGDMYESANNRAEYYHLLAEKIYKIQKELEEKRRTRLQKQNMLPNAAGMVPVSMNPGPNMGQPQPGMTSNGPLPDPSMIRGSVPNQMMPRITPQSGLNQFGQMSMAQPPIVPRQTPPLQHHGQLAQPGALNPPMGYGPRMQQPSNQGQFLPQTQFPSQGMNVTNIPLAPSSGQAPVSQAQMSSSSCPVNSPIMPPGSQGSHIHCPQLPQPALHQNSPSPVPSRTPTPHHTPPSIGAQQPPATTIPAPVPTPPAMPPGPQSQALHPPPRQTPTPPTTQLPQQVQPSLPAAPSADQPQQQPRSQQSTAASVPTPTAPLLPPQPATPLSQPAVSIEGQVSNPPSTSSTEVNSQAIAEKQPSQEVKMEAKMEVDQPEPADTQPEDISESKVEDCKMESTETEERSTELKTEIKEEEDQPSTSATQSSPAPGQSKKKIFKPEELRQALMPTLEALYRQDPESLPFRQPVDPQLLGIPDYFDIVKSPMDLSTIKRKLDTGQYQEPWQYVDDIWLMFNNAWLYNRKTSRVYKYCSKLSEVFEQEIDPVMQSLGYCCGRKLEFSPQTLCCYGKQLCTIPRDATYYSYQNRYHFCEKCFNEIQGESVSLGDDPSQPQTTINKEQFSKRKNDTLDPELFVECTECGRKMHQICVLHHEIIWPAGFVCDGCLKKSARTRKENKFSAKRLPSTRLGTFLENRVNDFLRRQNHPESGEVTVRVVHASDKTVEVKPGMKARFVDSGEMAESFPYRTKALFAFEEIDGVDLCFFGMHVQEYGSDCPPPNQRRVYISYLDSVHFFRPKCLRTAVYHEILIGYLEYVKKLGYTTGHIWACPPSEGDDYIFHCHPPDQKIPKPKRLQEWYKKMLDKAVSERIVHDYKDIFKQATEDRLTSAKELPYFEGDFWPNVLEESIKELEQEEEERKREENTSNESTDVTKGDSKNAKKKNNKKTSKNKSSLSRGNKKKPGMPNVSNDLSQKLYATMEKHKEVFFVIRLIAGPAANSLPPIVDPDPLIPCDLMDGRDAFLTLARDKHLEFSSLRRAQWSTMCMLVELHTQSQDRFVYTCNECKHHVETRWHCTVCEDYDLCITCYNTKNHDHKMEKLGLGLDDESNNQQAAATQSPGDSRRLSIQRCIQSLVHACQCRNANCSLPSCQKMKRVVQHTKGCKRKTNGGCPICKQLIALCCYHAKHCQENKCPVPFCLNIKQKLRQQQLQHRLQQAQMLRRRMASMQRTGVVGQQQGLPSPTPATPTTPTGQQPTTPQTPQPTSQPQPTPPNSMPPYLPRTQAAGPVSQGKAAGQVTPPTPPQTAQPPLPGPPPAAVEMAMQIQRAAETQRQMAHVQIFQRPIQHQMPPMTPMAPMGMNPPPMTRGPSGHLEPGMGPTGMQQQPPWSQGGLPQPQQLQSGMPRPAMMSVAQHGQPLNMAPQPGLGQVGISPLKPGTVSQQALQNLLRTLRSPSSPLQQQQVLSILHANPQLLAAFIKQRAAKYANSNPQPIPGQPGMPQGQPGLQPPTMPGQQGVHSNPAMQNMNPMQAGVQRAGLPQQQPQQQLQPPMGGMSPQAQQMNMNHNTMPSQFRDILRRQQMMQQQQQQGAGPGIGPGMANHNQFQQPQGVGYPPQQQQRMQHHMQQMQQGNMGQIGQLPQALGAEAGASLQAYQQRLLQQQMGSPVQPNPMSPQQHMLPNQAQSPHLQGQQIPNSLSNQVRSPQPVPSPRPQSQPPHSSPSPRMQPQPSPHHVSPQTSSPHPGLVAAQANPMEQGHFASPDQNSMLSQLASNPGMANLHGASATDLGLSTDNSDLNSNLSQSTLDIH
compound,measurement,setting,value
COc1ccc(C(=O)C2=C3OC(C)(C)[C@@H](CC=C(C)C)C[C@@]34C[C@@H](CC=C(C)C)C(C)(C)[C@@](CC=C(C)C)(C2=O)C4=O)cc1OC [Compound X],effect on acetylation catalysed by p300,full length p300 [1],without affecting acetylation
same,effect on butyrylation catalysed by p300,full length p300 [2],significant inhibitory effect
same,H3K23 Bu mark,[3],showed inhibition
same,H4K5 Bu mark,[3],showed inhibition
same,"histone acetylation (H3K18, H3K9, H4K12)",[3],not found to be affected
same,detection in mice liver (bioavailability),[4],detected in its intact form
